According to ChEMBL document CHEMBL5465560, “Selectivity Literature for EUbOPEN Chemogenomic Library” (2024):

How the values were obtained:
[1] = target: Tyrosine-protein kinase Blk (Homo sapiens) (UniProt P51451); test: Selectivity interaction (Upstate Kinase Profiler service (Millipore)) EUB0000056c BLK; conditions: at 1 µM
[2] = target: 5'-AMP-activated protein kinase catalytic subunit alpha-1 (Homo sapiens, UniProt Q13131); test: Selectivity interaction (ActivX KiNativ screen (kinase selectivity in THP-1 cell lysates)) EUB0000639a PRKAA1; type: subcellular; conditions: lysate, at 5 µM
Sequence of 5'-AMP-activated protein kinase catalytic subunit alpha-1 (Q13131 whole entry, looked up): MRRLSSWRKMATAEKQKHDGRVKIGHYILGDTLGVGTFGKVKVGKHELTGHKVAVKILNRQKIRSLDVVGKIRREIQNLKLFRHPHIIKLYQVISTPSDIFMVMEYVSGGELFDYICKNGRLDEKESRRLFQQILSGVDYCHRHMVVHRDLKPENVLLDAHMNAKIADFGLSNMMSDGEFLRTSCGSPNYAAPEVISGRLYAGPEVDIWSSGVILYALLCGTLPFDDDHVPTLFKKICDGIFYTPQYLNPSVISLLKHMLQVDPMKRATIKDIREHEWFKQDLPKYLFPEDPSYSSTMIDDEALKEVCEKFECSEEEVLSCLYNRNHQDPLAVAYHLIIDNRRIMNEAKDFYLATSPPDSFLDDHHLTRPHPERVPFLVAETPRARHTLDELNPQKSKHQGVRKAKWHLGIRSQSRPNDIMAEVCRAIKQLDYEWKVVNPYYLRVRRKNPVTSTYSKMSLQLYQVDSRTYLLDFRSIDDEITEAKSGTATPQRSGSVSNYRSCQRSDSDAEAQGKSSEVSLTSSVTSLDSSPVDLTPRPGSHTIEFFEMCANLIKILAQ

[3] = target: T1, Serine/threonine-protein kinase D2 (Homo sapiens) (UniProt Q9BZL6); test: Selectivity interaction (KinomeScan (DiscoverX)) EUB0000607a PRKD2; conditions: at 10 µM
T1 sequence (whole entry): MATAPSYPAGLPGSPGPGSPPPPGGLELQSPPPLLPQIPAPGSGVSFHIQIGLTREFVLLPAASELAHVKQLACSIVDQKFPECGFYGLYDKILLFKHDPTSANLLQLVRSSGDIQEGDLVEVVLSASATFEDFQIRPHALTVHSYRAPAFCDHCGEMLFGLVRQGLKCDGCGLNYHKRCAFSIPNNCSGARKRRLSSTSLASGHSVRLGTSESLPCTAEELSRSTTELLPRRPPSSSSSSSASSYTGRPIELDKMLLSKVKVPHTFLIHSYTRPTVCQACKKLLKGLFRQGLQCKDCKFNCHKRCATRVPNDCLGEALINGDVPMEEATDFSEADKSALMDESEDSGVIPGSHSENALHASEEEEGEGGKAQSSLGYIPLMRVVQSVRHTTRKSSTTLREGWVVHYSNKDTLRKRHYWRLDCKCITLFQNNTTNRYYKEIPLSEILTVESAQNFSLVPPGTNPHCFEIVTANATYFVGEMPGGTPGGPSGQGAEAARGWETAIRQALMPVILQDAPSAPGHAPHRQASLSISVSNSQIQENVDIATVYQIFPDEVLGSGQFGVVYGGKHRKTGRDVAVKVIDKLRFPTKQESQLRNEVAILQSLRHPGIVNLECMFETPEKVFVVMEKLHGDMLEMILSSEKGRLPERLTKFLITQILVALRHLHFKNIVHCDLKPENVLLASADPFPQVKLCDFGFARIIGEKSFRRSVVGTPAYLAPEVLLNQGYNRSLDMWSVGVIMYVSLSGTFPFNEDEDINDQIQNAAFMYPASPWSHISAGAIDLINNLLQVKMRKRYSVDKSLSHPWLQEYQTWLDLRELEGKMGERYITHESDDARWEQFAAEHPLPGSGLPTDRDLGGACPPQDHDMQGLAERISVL

[4] = target: T2, Phosphorylase b kinase gamma catalytic chain, liver/testis isoform (Homo sapiens) (UniProt P15735); test: Selectivity interaction (KinomeScan (DiscoverX)) EUB0000595a PHKG2; conditions: at 10 µM
T2 sequence (whole entry): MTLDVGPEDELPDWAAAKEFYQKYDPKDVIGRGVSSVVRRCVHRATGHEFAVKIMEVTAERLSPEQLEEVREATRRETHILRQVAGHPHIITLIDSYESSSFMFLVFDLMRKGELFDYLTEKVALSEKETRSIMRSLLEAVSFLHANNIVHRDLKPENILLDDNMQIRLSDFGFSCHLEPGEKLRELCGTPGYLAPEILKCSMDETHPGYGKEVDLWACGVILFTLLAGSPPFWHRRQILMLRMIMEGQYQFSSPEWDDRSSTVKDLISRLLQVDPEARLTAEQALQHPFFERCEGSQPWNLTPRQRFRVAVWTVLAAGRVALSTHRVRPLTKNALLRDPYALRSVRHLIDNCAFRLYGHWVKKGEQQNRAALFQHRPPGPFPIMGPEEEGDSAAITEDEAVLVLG

[5] = target: Ribosomal protein S6 kinase alpha-4 (Homo sapiens) (UniProt O75676); test: Selectivity interaction (KinomeScan (DiscoverX)) EUB0000618a RPS6KA4; conditions: at 10 µM
Sequence of Ribosomal protein S6 kinase alpha-4 (Homo sapiens) (O75676 whole entry, looked up): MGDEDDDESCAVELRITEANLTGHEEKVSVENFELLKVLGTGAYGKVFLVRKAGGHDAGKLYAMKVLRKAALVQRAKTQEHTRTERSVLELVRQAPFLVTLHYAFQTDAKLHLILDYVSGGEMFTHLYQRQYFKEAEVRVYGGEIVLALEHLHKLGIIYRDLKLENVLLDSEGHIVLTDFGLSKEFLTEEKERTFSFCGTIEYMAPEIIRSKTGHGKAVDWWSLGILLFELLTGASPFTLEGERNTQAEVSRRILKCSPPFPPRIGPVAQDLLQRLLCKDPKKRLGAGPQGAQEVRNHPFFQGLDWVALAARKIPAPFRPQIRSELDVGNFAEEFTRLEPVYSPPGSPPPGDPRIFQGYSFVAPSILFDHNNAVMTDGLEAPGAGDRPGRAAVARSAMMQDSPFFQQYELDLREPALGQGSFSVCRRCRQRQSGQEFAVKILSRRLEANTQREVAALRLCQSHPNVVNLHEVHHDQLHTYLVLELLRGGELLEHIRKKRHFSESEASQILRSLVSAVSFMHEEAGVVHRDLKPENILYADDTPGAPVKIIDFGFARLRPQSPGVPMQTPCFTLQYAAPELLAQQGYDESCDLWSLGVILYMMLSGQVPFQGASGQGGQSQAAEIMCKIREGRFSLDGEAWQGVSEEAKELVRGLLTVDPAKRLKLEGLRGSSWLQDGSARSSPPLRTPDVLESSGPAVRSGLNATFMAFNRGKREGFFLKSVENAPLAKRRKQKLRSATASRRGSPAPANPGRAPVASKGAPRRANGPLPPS

[6] = target: T3, Tyrosine-protein kinase ZAP-70 (Homo sapiens) (UniProt P43403); test: Selectivity interaction (ActivX KiNativ screen (ex vivo kinase selectivity in human PBMCs)) EUB0001619a ZAP70; type: cell-based; conditions: PBMC, at 1 µM
T3 sequence (whole entry): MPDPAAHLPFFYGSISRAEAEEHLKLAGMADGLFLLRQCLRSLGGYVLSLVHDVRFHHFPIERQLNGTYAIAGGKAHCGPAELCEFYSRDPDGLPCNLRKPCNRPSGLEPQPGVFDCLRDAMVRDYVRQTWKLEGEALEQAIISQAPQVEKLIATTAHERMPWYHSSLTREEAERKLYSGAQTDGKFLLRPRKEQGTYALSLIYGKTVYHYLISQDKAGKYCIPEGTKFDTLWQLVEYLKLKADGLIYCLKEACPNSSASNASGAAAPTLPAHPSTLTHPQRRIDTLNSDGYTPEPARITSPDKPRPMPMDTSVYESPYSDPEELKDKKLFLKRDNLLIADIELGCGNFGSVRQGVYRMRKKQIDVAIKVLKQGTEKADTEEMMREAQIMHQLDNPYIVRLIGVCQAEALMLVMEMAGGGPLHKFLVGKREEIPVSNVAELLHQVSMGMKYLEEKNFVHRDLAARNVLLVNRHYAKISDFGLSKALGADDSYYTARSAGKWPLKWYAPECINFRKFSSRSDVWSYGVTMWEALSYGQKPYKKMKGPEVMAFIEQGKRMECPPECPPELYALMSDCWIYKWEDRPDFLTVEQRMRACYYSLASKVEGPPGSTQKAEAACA

Sequence of Tyrosine-protein kinase Blk (Homo sapiens) (P51451 2-505 limits assumed): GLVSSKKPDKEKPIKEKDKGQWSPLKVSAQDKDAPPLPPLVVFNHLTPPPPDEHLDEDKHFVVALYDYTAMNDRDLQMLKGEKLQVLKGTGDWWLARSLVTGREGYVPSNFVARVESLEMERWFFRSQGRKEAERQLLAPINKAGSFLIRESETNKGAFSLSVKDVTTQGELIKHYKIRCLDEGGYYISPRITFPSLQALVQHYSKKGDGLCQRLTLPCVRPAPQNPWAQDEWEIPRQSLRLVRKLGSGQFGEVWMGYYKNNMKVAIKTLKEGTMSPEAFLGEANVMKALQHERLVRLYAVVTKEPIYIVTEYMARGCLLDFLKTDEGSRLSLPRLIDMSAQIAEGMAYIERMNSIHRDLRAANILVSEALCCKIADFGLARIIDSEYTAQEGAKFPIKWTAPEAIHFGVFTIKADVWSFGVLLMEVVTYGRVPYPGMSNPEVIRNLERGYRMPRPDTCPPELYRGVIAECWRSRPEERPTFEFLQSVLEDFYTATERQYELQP

Cc1ccc(-c2ccc3c(ccc4sc5c(c43)NC[C@@H](C)NC5=O)n2)cn1
% of inhibition [1]: 14%

CC[C@@H]1[C@H](F)C(=O)N[C@@H]1COc1nccc2cc(C(N)=O)c(OC)cc12 [ZIMLOVISERTIB]
% of inhibition [2]: 21.9%

CNC(=O)Nc1ccc(-c2nc(N3CC4CCC(C3)O4)c3cnn(C4CCC5(CC4)OCCO5)c3n2)cc1
% of control [3]: 100%

COCC(=O)NC/C=C/c1ccc2ncnc(Nc3ccc(Oc4ccc(C)nc4)c(C)c3)c2c1 [CP-724714]
% of control [4]: 86%

O[C@H]1CC[C@H](Nc2ncc3nc(Nc4c(F)cc(F)cc4F)n([C@H]4CCOC4)c3n2)CC1
% of control [5]: 100%

N#Cc1cccc(-c2c[nH]c3ncnc(N4CCOCC4)c23)c1
% of inhibition [6]: 7%
